Series [1] has as its target T1, hT1R1/hT1R3 umami receptor (Homo sapiens, UniProt Q7RTX0+Q7RTX1).
T1 construct: expressed in transfected cells; host or cells: HEK293 derivative stably expressing Gα15, clone I-17, expression induced with mifepristone
T1 sequence (Q7RTX1 21-841): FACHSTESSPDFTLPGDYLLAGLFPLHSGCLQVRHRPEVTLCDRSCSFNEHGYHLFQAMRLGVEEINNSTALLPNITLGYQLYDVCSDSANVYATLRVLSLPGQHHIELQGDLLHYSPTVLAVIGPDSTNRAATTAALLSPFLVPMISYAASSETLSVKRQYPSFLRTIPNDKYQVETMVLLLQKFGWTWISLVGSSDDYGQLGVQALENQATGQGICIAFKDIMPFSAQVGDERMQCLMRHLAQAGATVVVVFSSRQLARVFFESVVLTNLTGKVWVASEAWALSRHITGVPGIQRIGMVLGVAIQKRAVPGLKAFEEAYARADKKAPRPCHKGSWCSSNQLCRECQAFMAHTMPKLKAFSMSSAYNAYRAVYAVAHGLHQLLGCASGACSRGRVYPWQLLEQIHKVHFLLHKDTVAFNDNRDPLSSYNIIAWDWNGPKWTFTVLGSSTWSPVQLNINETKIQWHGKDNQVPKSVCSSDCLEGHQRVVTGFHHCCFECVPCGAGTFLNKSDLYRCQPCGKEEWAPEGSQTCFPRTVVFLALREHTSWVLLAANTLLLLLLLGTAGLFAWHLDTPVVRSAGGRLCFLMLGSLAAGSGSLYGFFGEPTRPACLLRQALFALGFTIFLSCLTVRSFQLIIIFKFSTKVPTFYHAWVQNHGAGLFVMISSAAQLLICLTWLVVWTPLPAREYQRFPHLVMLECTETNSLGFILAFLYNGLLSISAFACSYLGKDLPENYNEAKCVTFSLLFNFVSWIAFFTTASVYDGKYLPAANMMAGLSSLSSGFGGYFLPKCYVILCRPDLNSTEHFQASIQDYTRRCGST
T1 sequence (Q7RTX0 21-852): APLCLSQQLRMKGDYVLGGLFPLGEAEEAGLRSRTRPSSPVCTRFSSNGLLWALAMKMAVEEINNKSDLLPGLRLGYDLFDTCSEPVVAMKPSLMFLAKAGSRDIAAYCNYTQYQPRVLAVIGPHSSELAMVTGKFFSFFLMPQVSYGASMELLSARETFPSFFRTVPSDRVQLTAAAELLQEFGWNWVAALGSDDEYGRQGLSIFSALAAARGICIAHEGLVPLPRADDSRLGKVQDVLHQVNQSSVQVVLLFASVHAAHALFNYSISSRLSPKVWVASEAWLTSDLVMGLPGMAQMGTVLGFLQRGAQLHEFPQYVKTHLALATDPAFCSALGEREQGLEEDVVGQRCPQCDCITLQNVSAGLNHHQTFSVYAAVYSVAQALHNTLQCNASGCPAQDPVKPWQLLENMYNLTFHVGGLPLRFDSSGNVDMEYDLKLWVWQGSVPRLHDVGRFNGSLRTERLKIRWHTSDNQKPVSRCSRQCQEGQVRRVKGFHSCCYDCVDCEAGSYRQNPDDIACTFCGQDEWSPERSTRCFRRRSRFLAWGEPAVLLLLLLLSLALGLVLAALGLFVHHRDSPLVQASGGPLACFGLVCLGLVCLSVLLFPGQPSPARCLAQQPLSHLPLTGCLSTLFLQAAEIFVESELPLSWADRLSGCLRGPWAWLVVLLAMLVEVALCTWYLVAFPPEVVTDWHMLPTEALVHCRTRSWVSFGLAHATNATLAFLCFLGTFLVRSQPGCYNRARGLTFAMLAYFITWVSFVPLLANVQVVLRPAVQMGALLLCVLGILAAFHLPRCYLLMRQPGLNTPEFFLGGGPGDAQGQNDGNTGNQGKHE
Description: In vitro hT1R1/hT1R3 umami taste receptor activation assay (FLIPR, dose response). It counts as cell-based.

Series [2] has as its target T2, hT1R2/hT1R3 sweet receptor (Homo sapiens, UniProt Q7RTX0+Q8TE23).
T2 construct: expressed in transfected cells; host or cells: HEK293 derivative stably expressing Gα15, clone S-9
T2 sequence (Q8TE23 20-839): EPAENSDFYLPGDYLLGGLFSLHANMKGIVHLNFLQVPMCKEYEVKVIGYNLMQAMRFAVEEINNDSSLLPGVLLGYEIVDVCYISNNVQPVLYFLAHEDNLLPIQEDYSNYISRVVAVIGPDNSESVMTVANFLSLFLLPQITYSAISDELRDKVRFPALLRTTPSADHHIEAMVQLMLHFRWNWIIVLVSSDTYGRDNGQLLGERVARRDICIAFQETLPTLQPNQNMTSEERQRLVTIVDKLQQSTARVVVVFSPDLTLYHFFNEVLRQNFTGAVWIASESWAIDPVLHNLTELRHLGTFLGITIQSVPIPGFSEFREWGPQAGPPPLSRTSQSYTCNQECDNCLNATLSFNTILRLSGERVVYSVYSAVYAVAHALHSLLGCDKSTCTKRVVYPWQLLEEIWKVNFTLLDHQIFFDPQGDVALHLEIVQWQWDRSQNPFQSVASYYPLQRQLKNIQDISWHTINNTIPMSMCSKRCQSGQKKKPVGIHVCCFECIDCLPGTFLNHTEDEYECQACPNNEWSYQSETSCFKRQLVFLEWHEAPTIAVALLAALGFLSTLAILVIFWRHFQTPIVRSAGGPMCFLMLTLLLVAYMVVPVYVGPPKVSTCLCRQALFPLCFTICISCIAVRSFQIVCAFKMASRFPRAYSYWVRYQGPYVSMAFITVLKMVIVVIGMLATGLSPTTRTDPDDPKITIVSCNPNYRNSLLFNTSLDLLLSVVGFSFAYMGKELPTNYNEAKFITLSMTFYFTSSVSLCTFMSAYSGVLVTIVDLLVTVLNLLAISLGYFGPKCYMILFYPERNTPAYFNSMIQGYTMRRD
T2 sequence (Q7RTX0 21-852): T1 sequence (Q7RTX0 21-852)
Kind of series: In vitro hT1R2/hT1R3 sweet taste receptor activation assay (FLIPR, dose response). It counts as cell-based. The essentials: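 Dose-response at 10 concentrations (60 nM–30 µM, duplicates) measured as Fluo-3AM calcium fluorescence on FLIPR in hT1R2/hT1R3 S-9 cells, in D-PBS at room temperature. Responses scaled to 400 mM D-fructose. EC50s from regression with all curve parameters floating.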

[3] abbreviates: read-out: EC50 for activation of a hT1R1/hT1R3 umami receptor expressed in an HEK293 cell line.
[4] abbreviates: Table E, Sweet Enhancer Amides, read-out: Sweet EC50.
[5] abbreviates: read-out: EC50 for activation of a hT1R2/hT1R3 sweet receptor expressed in an HEK293 cell line.

Like-named read-outs stand apart in the source and are kept apart here.

`CCOc1ccc(CNC(=O)C(=O)NCCc2ccccn2)c(OC)c1` [Example 134, N-(4-ethoxy-2-methoxybenzyl)-N′-(2-(pyridin-2-yl)ethyl)oxalamide]: the melting point lay in the range of 117 to 118 °C. The EC50 in series [1] (setting [3]) is 100 nM.
Taken in the same sequence, the figures for `CCCC(CCC)NC(=O)c1ccc(SC)c(C)c1` [Example 51, N-(heptan-4-yl)-3-methyl-4-(methylthio)benzamide] were 129 to 131 °C and 120 nM.
Regarding `CC1CCCCC1NC(=O)c1nsc(Cl)c1Cl` (stereo not shown) [Example E78, 4,5-Dichloro-isothiazole-3-carboxylic acid (2-methyl-cyclohexyl)-amide], the EC50 in series [1] (Table E, read-out: Umami EC50) is 8510 nM; in series [2] (setting [4]), 4240 nM.
`Cc1ccc(CNC(=O)C(=O)NCCc2ccccn2)n1C` [Example 131, N-(1,5-Dimethyl-1H-pyrrol-2-ylmethyl)-N′-(2-pyridin-2-yl-ethyl)-oxalamide]: the melting point lay in the range of 147 to 149 °C. For the same compound, the EC50 in series [1] (setting [3]) worked out at 2300 nM.
For `COc1ccc(CNC(=O)C(=O)NCCc2ccccn2)c(C)c1` [Example 126, N-(2-Methyl-4-methoxybenzyl)-N′-(2-pyridin-2-yl-ethyl)-oxalamide], in that order: 133 to 134 °C and 110 nM.
Taken in the same sequence, the figures for `CC(C)c1ccc(NC(=O)NCCc2ccccn2)cc1` [Example 161, 1-(4-isopropylphenyl)-3-(2-(pyridine-2-yl)ethyl)urea] were 72 to 73 °C and 980 nM.
`CCCC(CCC)NC(=O)c1cccc(C(F)(F)F)c1` [Example E68, N-(heptan-4-yl)-3-(trifluoromethyl)benzamide]: the EC50 in series [1] (Table E, read-out: Umami EC50) turned out to be 330 nM; in series [2] (setting [4]), 3030 nM.
On to `COc1ccc(CNC(=O)C(=O)NCCc2ccc(C)cn2)c(OC)c1` [Example 155, N-(2,4-Dimethoxybenzyl)-N′-(2-(5-methylpyridin-2-yl)ethyl)oxalamide], for which the melting point was in the range of 124 to 125 °C. In series [1] (setting [3]), the EC50 turned out to be 70 nM.
As for `Cc1cccc2c1CCC[C@H]2NC(=O)c1conc1C` [Example 182, (R)-3-Methyl-N-(5-methyl-1,2,3,4-tetrahydronaphthalen-1-yl)isoxazole-4-carboxamide], in series [2] (setting [5]), the EC50 is 2800 nM.
Consider `O=C(N[C@@H]1CCCc2ccccc21)c1cc(O)ccc1O` [Example E24, (R)-2,5-dihydroxy-N-(1,2,3,4-tetrahydronaphthalen-1-yl)benzamide], for which the EC50 in series [2] (setting [4]) was determined as 6040 nM.
Still for that read-out and setting: to `CC1CCCC(NC(=O)Cc2c(F)c(F)c(F)c(F)c2F)C1C` (stereo not shown) [Example E74, N-(2,3-dimethylcyclohexyl)-2-(perfluorophenyl)acetamide] belongs 3620 nM; to `COc1c(Cl)ccc(Cl)c1C(=O)NC1CCCc2ccccc21` (stereo not shown) [Example E16, 3,6-dichloro-2-methoxy-N-(1,2,3,4-tetrahydronaphthalen-1-yl)benzamide], 3040 nM.
The same measure, in the same setting: to `Cc1c(F)c(F)c(C(=O)N[C@@H](C)C(C)(C)C)c(F)c1F` [Example E38, (S)-N-(3,3-dimethylbutan-2-yl)-2,3,5,6-tetrafluoro-4-methylbenzamide] belongs 900 nM.
With `COc1cccc2c1CCCC2NC(=O)c1cccc(C)c1O` (stereo not shown) [Example E122, 2-hydroxy-N-(5-methoxy-1,2,3,4-tetrahydronaphthalen-1-yl)-3-methylbenzamide], the EC50 in series [2] (setting [4]) was determined as 1950 nM.
Still for that read-out and setting: to `Cc1cccc(NC(=O)N2CCc3ccccc32)c1C` [Example E120, N-(2,3-dimethylphenyl)indoline-1-carboxamide] belongs 2380 nM; to `O=C(Nc1ccc(F)cc1F)c1cc(Cl)ccc1O` [Example E89, 5-Chloro-N-(2,4-difluoro-phenyl)-2-hydroxy-benzamide], 2560 nM.
On the same count and under the same terms, to `CC1CCCC(NC(=O)c2cc(F)ccc2F)C1C` (stereo not shown) [Example E77, N-(2,3-dimethylcyclohexyl)-2,5-difluorobenzamide] belongs 4110 nM.
On to `Cc1ccc2c(c1)CN(C(=O)Nc1c(F)cc(Br)cc1F)C2` [Example 197, N-(4-Bromo-2,6-difluorophenyl)-5-methylisoindoline-2-carboxamide], for which the EC50 in series [2] (setting [5]) was 520 nM.
For `Cc1cc(C)c(C(=O)NC2CCCCC2)c(C)c1` [Example E66, N-cyclohexyl-2,4,6-trimethylbenzamide], the EC50 in series [2] (setting [4]) came to 2860 nM.
For `COc1cc(C)c(C(=O)NC2CCCCC2C)c(C)c1` (stereo not shown) [Example 169, 4-methoxy-2,6-dimethyl-N-(2-methylcyclohexyl)benzamide], the EC50 in series [2] (setting [5]) was 2100 nM.
For `CC(C)C(NC(=O)c1c(O)cccc1O)C(C)C` [Example E79, N-(2,4-dimethylpentan-3-yl)-2,6-dihydroxybenzamide], the EC50 in series [2] (setting [4]) was 4280 nM.
Still for that read-out and setting: to `CCc1nocc1C(=O)N[C@@H]1CCCc2c(C)cc(C)cc21` [Example E128, (R)-N-(5,7-dimethyl-1,2,3,4-tetrahydronaphthalen-1-yl)-3-ethylisoxazole-4-carboxamide] belongs 1240 nM; to `COc1cccc(C(=O)NC2CCC(C)CC2)c1O` (stereo not shown) [Example E72, 2-hydroxy-3-methoxy-N-(4-methylcyclohexyl)benzamide], 3350 nM; to `CC1CCCC(NC(=O)c2cncc(Br)c2)C1C` (stereo not shown) [Example E55, 5-bromo-N-(2,3-dimethylcyclohexyl)mcotmamide], 1890 nM.
Turning to `Cc1ccc2c(c1)C(NC(=O)c1cccc(Cl)c1O)CCC2` (stereo not shown) [Example 178, 3-Chloro-2-hydroxy-N-(7-methyl-1,2,3,4-tetrahydronaphthalen-1-yl)benzamide], in series [2] (setting [5]), the EC50 amounted to 1480 nM.
In the case of `Cc1c(F)c(F)c(C(=O)NC2CCCCCCC2)c(F)c1F` [Example E46, N-cyclooctyl-2,3,5,6-tetrafluoro-4-methylbenzamide], the EC50 in series [2] (setting [4]) was found to be 1250 nM.

The melting point is the temperature of the solid-liquid transition.

For the origin of these results see patent US20060045953A1 (priority 2004, published 2006).
